Assay results: patent publication US12605350B2, “Composition for preventing, ameliorating, or treating disease caused by nitration of tyrosine in proteins comprising tyrosine as effective component” (INDUSTRY-ACADEMIC COOPERATION FOUNDATION GYEONGSANG …, priority 2020, dated 2026)
“Also recorded” adds a separate entry of the source.

Assays:
[1] = system: NQO-1; experiment: NQO-1 gene expression in kidney (quantitative real-time PCR), renal ischemia and reperfusion; format: in vivo, mouse; conditions: L-tyrosine 100 mg/kg oral once a day for 4 days, 24 hours after ischemia and reperfusion, vs prepared solvent
Method: (§1) C57BL/6 male mouse (23 to 25 g, KOATECH, South Korea) was allowed to have free access to diets and water in sterile breeding room with constant temperature and humidity. The animals were divided into 3 test groups, i.e., 1) Control group (Sham), 2) Renal ischemia having treatment with prepared solvent and induced reperfusion group (CMC+IR), and 3) Renal ischemia having treatment with L-tyrosine and induced reperfusion group (L-Tyr+IR).
L-Tyrosine (100 mg/kg) was suspended in 0.5% CMC (carboxymethyl cellulose). The animal was orally administered, once a day for 4 days, with L-tyrosine or the prepared solvent CMC. Thirty minutes after the oral administration on Day 4, renal ischemia was caused. Specifically, the animal abdomen was cut and renal pedicles at both sides were clamped using a Muller atraumatic vascular clamp to cause renal ischemia. After 25 minutes of blood ischemia, the clamp was removed followed by reperfusion. The control group (Sham) received the same operational procedures as above except the ischemia using clamp. […]
According to Trizol method, total RNA was extracted from kidney tissues, and cDNA was synthesized by using Revert Aid Reverse Transcription System (ThermoFisher). Quantitative PCR was carried out with CFX Connect Real-Time PCR system (Bio-Rad) by using iQ SYBR Green Super mix (Bio-Rad). […]

[2] = molecular target: T1, glutamine synthetase (GS) (Mus musculus, UniProt P15105); experiment: in vitro GS activity of PFC tissue lysate treated with nitrogen peroxide (PN) and tyrosine; format: biochemical; conditions: PFC tissue lysate (10 μg), 0.0031 to 0.45 mg/ml tyrosine, nitrogen peroxide (PN) 10 times the tissue lysate
T1 construct: PFC sample was weighed first, and, after lysis of the tissues by using Bullet homogenizer, subjected to centrifuge; from tissue; host or cells: mouse prefrontal cortex (PFC) lysate
T1 sequence (P15105 2-373 limits assumed): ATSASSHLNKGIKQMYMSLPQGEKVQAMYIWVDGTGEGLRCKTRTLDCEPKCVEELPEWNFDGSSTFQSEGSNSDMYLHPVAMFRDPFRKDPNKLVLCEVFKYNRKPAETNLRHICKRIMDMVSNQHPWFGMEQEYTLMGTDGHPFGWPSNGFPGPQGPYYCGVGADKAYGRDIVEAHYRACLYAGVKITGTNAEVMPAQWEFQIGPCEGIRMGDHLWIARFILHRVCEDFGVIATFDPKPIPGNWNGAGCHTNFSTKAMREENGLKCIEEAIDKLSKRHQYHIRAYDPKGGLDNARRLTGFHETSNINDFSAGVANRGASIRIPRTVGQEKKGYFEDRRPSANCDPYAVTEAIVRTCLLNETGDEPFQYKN
Method: Each of the blood and PFC sample was obtained from a mouse anesthetized with CO2 gas. Specifically, mouse blood was collected between 9 AM and 11 AM and stored in a K3EDTA-coated vacuum container. Plasma was obtained by centrifuge for 10 minutes at 4° C., 500×g. PFC sample was weighed first, and, after lysis of the tissues by using Bullet homogenizer, subjected to centrifuge for 20 minutes at 4° C., 12,000 rpm. Thus-obtained plasma and tissue lysate were kept at −80° C. until use.
10 μg of the lysate were admixed with […] of GS assay buffer solution (50 mM imidazole-HCl, pH 6.8, 50 mM L-glutamine, 25 mM hydroxylamine, 25 mM sodium arsenate, 2 mM MnCl2 and 0.16 mM ADP), followed by incubation for 1 hour at 37° C.
After the mixing, the reaction was terminated by adding 50 μl of stop buffer solution (90 mM FeCl3, 1.8 N HCl and 1.45% trichloroacetic acid), and then γ-glutamylhydroxamate synthesized from a reaction between glutamine and hydroxylamine as catalyzed by GS was measured at 560 nm using a microplate reader.
Moreover, after PFC (prefrontal cortex) tissue lysate (10 μg) was added and mixed with 0.0031 to 0.45 mg/ml tyrosine, incubated on ice for 10 minutes, and added with nitrogen peroxide (PN), in an amount that is 10 times the tissue lysate, followed by incubation for 10 minutes, in vitro GS activity was examined.

[3] = system: chronic immobilization stress group (STR); experiment: ammonia amount in PFC (Ammonia assay kit); format: in vivo, mouse; conditions: stress group fed tyrosine-diet
Method: PFC tissues were weighed at a temperature of not more than −20° C. to prevent them from melting. To a 1.5 ml tube, RIPA (proteinase inhibitor cocktail, containing PIC) in an amount of 100 μl per 10 mg of the tissues and suitable number of glass beads were added, and then the tissues were lysed twice for 30 seconds by using a bullet blender. Lysed tissues were spun down, transferred to a fresh 1.5 ml tube, and then subjected to tissue homogenization for 1 min by ultrasonication. After centrifuged for 15 minutes at 12,000 rpm, supernatant was transferred to a fresh 1.5 ml tube and kept at −80° C. until use. […]
To 100 μl of the ammonia assay reagent provided in the Ammonia assay kit, 10 μl of the sample diluted by a factor 2 using PBS buffer solution (i.e., corresponding to 5 μg tissues) were added and incubated for 5 minutes at room temperature. […] After 5 minutes, absorbance was measured at 340 nm by using a microreader (Ainitial).
After adding 10 μl of glutamate dehydrogenase solution and incubation for 5 minutes at room temperature, absorbance was measured at 340 nm by using a microreader (Afinal).
DA340 nm (Afinal-Ainitial) was then calculated, and DA340 nm of the blank control or DA340 nm of buffer solution blank control was excluded by subtraction for the reference and sample, respectively. […]

[4] = system: high-fat diet mouse model of type 2 diabetes; experiment: fat accumulation in tissues, high-fat diet model; format: in vivo
Method: Twenty-seven C57BL/6 male mice (3-week old) were acclimated to the breeding condition for 1 week. […] Blood glucose was measured every week.
Mouse was anesthetized with avertin, and blood was collected from a heart. After the reaction with EDTA in a vacucontainer, the blood was centrifuged for 15 minutes at 1,500×g, 4° C. to separate plasma. According to heart perfusion with PBS and 4% paraformaldehyde (PFA), tissue fixation was carried out. Then, each tissue was harvested and stored in PFA.

[5] = system: acute renal failure caused by kidney ischemia or reperfusion injury; experiment: ROS/RNS amount in mitochondria, renal ischemia and reperfusion; format: in vivo, mouse; conditions: L-tyrosine 100 mg/kg oral for 4 days, IR
Method: as §1
L-Tyrosine (100 mg/kg) was suspended in 0.5% CMC (carboxymethyl cellulose). The animal was orally administered, once a day for 4 days, with L-tyrosine or the prepared solvent CMC. Thirty minutes after the oral administration on Day 4, renal ischemia was caused. Specifically, the animal abdomen was cut and renal pedicles at both sides were clamped using a Muller atraumatic vascular clamp to cause renal ischemia. After 25 minutes of blood ischemia, the clamp was removed followed by reperfusion. The control group (Sham) received the same operational procedures as above except the ischemia using clamp. Twenty-four hours after the reperfusion, the test animal was sacrificed, blood was collected from the heart, and the tissues were harvested.

[6] = HFD animal model, L-tyrosine diet (181 mg/kg)

Compound | expression of NQO-1 gene in kidney [1] | in vitro GS activity [2] | ammonia amount in PFC [3] | amount of fat tissues around kidney [4, 6] | fat accumulation in liver [4, 6] | tissue weight (fat accumulation in tissues) ([4]; HFD+Tyr compared to HFD) | ROS/RNS amount in mitochondria [5]
N[C@@H](Cc1ccc(O)cc1)C(=O)O [L-tyrosine] | statistically significant increase in the expression of NQO-1 gene | – | – | – | – | – | –
N[C@@H](Cc1ccc(O)cc1)C(=O)O [tyrosine] | – | statistically significant increase in GS activity; also recorded: higher GS activity is obtained in accordance with an increase in the tyrosine concentration | reduced to a similar level to the normal group | reduced to a statistically different level | fat accumulation is reduced all over the liver | statistically significant decrease in tissue weight | suppressed
